Source: ChEMBL document CHEMBL6078640, “Trivalent oleanolic acid-glucose conjugates: Synthesis and efficacy against Influenza A virus” (Eur J Med Chem, 2024)
Calls of active or inactive are those of the source. The rule behind the calls is not given here.

Tests used:
[1] = system: MDCK; test: Cytotoxicity against dog MDCK cells assessed as reduction in cell viability at 100 uM incubated for 40 hrs by celltiter-glo assay; assay type: toxicity, cell-based, Canis lupus familiaris
[2] = system: Influenza A virus; test: Antiviral activity against Influenza A virus H1N1 infected in MDCK cells assessed as inhibition of viral growth at 100 uM relative to control; assay type: functional
[3] = system: Influenza A virus; test: Antiviral activity against influenza A virus A/WSN/33(H1N1) infected in MDCK cells assessed as inhibition of viral-induced cytopathic effect pretreated with cells followed by viral infection and measured after 40 hrs by fluorescence based microplate reader analysis; assay type: functional, organism-based
[4] = Cytotoxicity against dog MDCK cells assessed as reduction in cell viability incubated for 40 hrs by celltiter-glo assay; assay type: toxicity, cell-based, Canis lupus familiaris
[5] = Selectivity index, ratio of CC50 for dog MDCK cells to IC50 for influenza A virus A/WSN/33(H1N1) infected in MDCK cells; assay type: toxicity, cell-based; conditions: read-out: Selectivity Index
[6] = system: Influenza A virus; test: Antiviral activity against Influenza A virus A/WSN/33(H1N1) infected in female BALB/c kunming mouse assessed as reduction in lung index at 12.5 mg/kg/day, administered intranasally once per day for 7 days starting from 24 hrs post-viral infection and measured daily; assay type: functional; conditions: time 7 day
[7] = system: Influenza A virus; test: Antiviral activity against Influenza A virus A/WSN/33(H1N1) infected in female BALB/c kunming mouse assessed as reduction in severe pneumonia at 10 mg/kg/day, administered intranasally once per day for 7 days starting from 24 hrs post-viral infection and measured daily; assay type: functional, organism-based; conditions: time 7.0 day
[8] = system: Influenza A virus; test: Antiviral activity against Influenza A virus A/WSN/33(H1N1) infected in female BALB/c kunming mouse assessed as reduction in immune cell infiltration at 10 mg/kg/day, administered intranasally once per day for 7 days starting from 24 hrs post-viral infection and measured daily; assay type: functional, organism-based; conditions: time 7.0 day

SMILES | Activity [1] | inhibition at 100 µM [2] | IC50 [3] | CC50 at 40 h [4] | selectivity ratio [5] | Activity_index [6] | Activity [7] | Activity [8]
CC1(C)CC[C@]2(C(=O)NCc3cn([C@@H]4O[C@H](CO)[C@@H](O)[C@H](O)[C@H]4O)nn3)CC[C@]3(C)C(=CC[C@@H]4[C@@]5(C)CC[C@H](O)C(C)(C)[C@@H]5CC[C@]43C)[C@@H]2C1 | Non-toxic | > 75% | 1.36 µM | > 100 µM | > 73.5 | 1.4 | Active | Active
CC(=O)OC[C@H]1O[C@@H](n2cc(CNC(=O)[C@]34CCC(C)(C)C[C@H]3C3=CC[C@@H]5[C@@]6(C)CC[C@H](OC(=O)NCc7cn(CC(CO)(Cn8cc(CNC(=O)O[C@H]9CC[C@]%10(C)[C@H]%11CC=C%12[C@@H]%13CC(C)(C)CC[C@]%13(C(=O)NCc%13cn([C@@H]%14O[C@H](COC(C)=O)[C@@H](OC(C)=O)[C@H](OC(C)=O)[C@H]%14OC(C)=O)nn%13)CC[C@@]%12(C)[C@]%11(C)CC[C@H]%10C9(C)C)nn8)Cn8cc(CNC(=O)O[C@H]9CC[C@]%10(C)[C@H]%11CC=C%12[C@@H]%13CC(C)(C)CC[C@]%13(C(=O)NCc%13cn([C@@H]%14O[C@H](COC(C)=O)[C@@H](OC(C)=O)[C@H](OC(C)=O)[C@H]%14OC(C)=O)nn%13)CC[C@@]%12(C)[C@]%11(C)CC[C@H]%10C9(C)C)nn8)nn7)C(C)(C)[C@@H]6CC[C@@]5(C)[C@]3(C)CC4)nn2)[C@H](OC(C)=O)[C@@H](OC(C)=O)[C@@H]1OC(C)=O | Non-toxic | > 75% | 70.4 µM | > 100 µM | > 1.42 | – | – | –
CC1(C)CC[C@]2(C(=O)NCc3cn([C@@H]4O[C@H](CO)[C@@H](O)[C@H](O)[C@H]4O)nn3)CC[C@]3(C)C(=CC[C@@H]4[C@@]5(C)CC[C@H](OC(=O)NCCCc6cn(Cc7cc(Cn8cc(CCCNC(=O)O[C@H]9CC[C@]%10(C)[C@H]%11CC=C%12[C@@H]%13CC(C)(C)CC[C@]%13(C(=O)NCc%13cn([C@@H]%14O[C@H](CO)[C@@H](O)[C@H](O)[C@H]%14O)nn%13)CC[C@@]%12(C)[C@]%11(C)CC[C@H]%10C9(C)C)nn8)cc(Cn8cc(CCCNC(=O)O[C@H]9CC[C@]%10(C)[C@H]%11CC=C%12[C@@H]%13CC(C)(C)CC[C@]%13(C(=O)NCc%13cn([C@@H]%14O[C@H](CO)[C@@H](O)[C@H](O)[C@H]%14O)nn%13)CC[C@@]%12(C)[C@]%11(C)CC[C@H]%10C9(C)C)nn8)c7)nn6)C(C)(C)[C@@H]5CC[C@]43C)[C@@H]2C1 | Non-toxic | > 75% | 43.9 µM | > 100 µM | > 2.28 | – | – | –
CC(=O)OC[C@H]1O[C@@H](n2cc(CNC(=O)[C@]34CCC(C)(C)C[C@H]3C3=CC[C@@H]5[C@@]6(C)CC[C@H](OC(=O)NCCc7cn(CC(CO)(Cn8cc(CCNC(=O)O[C@H]9CC[C@]%10(C)[C@H]%11CC=C%12[C@@H]%13CC(C)(C)CC[C@]%13(C(=O)NCc%13cn([C@@H]%14O[C@H](COC(C)=O)[C@@H](OC(C)=O)[C@H](OC(C)=O)[C@H]%14OC(C)=O)nn%13)CC[C@@]%12(C)[C@]%11(C)CC[C@H]%10C9(C)C)nn8)Cn8cc(CCNC(=O)O[C@H]9CC[C@]%10(C)[C@H]%11CC=C%12[C@@H]%13CC(C)(C)CC[C@]%13(C(=O)NCc%13cn([C@@H]%14O[C@H](COC(C)=O)[C@@H](OC(C)=O)[C@H](OC(C)=O)[C@H]%14OC(C)=O)nn%13)CC[C@@]%12(C)[C@]%11(C)CC[C@H]%10C9(C)C)nn8)nn7)C(C)(C)[C@@H]6CC[C@@]5(C)[C@]3(C)CC4)nn2)[C@H](OC(C)=O)[C@@H](OC(C)=O)[C@@H]1OC(C)=O | Non-toxic | > 75% | 10.3 µM | > 100 µM | > 9.69 | – | – | –
CC(=O)OC[C@H]1O[C@@H](n2cc(CNC(=O)[C@]34CCC(C)(C)C[C@H]3C3=CC[C@@H]5[C@@]6(C)CC[C@H](OC(=O)NCCCc7cn(Cc8cc(Cn9cc(CCCNC(=O)O[C@H]%10CC[C@]%11(C)[C@H]%12CC=C%13[C@@H]%14CC(C)(C)CC[C@]%14(C(=O)NCc%14cn([C@@H]%15O[C@H](COC(C)=O)[C@@H](OC(C)=O)[C@H](OC(C)=O)[C@H]%15OC(C)=O)nn%14)CC[C@@]%13(C)[C@]%12(C)CC[C@H]%11C%10(C)C)nn9)cc(Cn9cc(CCCNC(=O)O[C@H]%10CC[C@]%11(C)[C@H]%12CC=C%13[C@@H]%14CC(C)(C)CC[C@]%14(C(=O)NCc%14cn([C@@H]%15O[C@H](COC(C)=O)[C@@H](OC(C)=O)[C@H](OC(C)=O)[C@H]%15OC(C)=O)nn%14)CC[C@@]%13(C)[C@]%12(C)CC[C@H]%11C%10(C)C)nn9)c8)nn7)C(C)(C)[C@@H]6CC[C@@]5(C)[C@]3(C)CC4)nn2)[C@H](OC(C)=O)[C@@H](OC(C)=O)[C@@H]1OC(C)=O | Non-toxic | > 75% | 6.39 µM | > 100 µM | > 15.6 | – | – | –
